We go through 10 compounds from ChEMBL document CHEMBL1133951, “New anti-malarial flavonol glycoside from Hydrangeae Dulcis Folium” (2001).

The test system of test [1] is Plasmodium falciparum. The test can be described thus: Antimalarial potency against Plasmodium falciparum at 0.05 ng/mL. The format is functional.
The test system of test [2] is KB 3-1. The test can be described thus: Cytotoxic activity against KB 3-1 cells at 5 ug/mL; Not detected. The test is classed as functional, cell-based. The note with it: Homo sapiens.
Test [3] has as its system Plasmodium falciparum. The experiment in a line: Antimalarial potency against Plasmodium falciparum at 0.5 ng/mL. The format is functional.
The subject of test [4] is Plasmodium falciparum. The test can be described thus: Anti-malarial potency against Plasmodium falciparum at 5 ng/ml. The test is classed as functional.
Test [5] concerns Plasmodium falciparum. The experiment in a line: Anti-malarial potency against Plasmodium falciparum at 0.1 ng/ml. The format is functional.
Test [6] has as its system Plasmodium falciparum. The experiment in a line: Inhibitory ratio on proliferation of Plasmodium falciparum at 0.1 uM. The format is functional.
In test [7] the test system is KB 3-1. The experiment in a line: Cytotoxic activity against KB 3-1 cells at 5 ug/m; Not detected. The test is classed as functional, cell-based. Conditions: Homo sapiens.

Each structure is given as a SMILES string.

Consider `CC(=O)OC[C@H]1O[C@@H](O[C@@H]2[C@@H](O)[C@@H](O)[C@H](Oc3c(-c4ccc(O)c(O)c4)oc4cc(O)cc(O)c4c3=O)O[C@H]2C)[C@H](O)[C@H](O)[C@H]1O`, for which the Activity in test [1] is 27.4%; in test [3], 52.1%; in test [4], 65.4%; in test [5] it was 40.3%. The Cytotoxicity result in test [2] is “Not detected”.
Regarding `C[C@@H]1O[C@@H](OC[C@H]2O[C@H](Oc3c(-c4ccc(O)cc4)oc4cc(O)cc(O)c4c3=O)[C@H](O)[C@H](O)[C@H]2O)[C@H](O)[C@H](O)[C@H]1O`, the Activity in test [1] was determined as 30.5%; in test [3], 60.1%; in test [4] it was 50.9%; in test [5] it was 49.1%.
As for `C[C@@H]1O[C@@H](OC[C@H]2O[C@@H](Oc3c(-c4ccc(O)cc4)oc4cc(O)cc(O)c4c3=O)[C@H](O[C@H]3OC[C@H](O)[C@@H](O)[C@@H]3O)[C@@H](O)[C@H]2O)[C@H](O)[C@H](O)[C@H]1O`, the Activity in test [1] was 37.6%; in test [3] it was 68.7%; in test [4] it was 58.9%; in test [5], 54.2%. In addition, in test [2], the Cytotoxicity result is “Not detected”.
As for `C[C@@H]1O[C@@H](Oc2c(-c3ccc(O)c(O)c3)oc3cc(O)cc(O)c3c2=O)[C@H](O)[C@H](O)[C@H]1O` [QUERCITRIN], the Activity in test [1] worked out at 34%; in test [3], 36%; in test [4], 32.9%; in test [5], 39.4%.
On to `C[C@@H]1O[C@@H](Oc2c(-c3ccc(O)c(O)c3)oc3cc(O)cc(O)c3c2=O)[C@H](O)[C@H](O)[C@H]1O[C@@H]1O[C@H](CO)[C@H](O)[C@@H](O)[C@H]1O`, for which the Activity in test [1] was 25%; in test [3], 43.4%; in test [4], 48.1%; in test [5], 32.8%.
For `COc1cc(-c2oc3cc(O)cc(O)c3c(=O)c2O[C@H]2O[C@H](CO[C@@H]3O[C@@H](C)[C@H](O)[C@@H](O)[C@H]3O)[C@H](O)[C@@H](O)[C@H]2O)ccc1O`, the Activity in test [1] came out at 10.8%; in test [3] it was 44.5%; in test [4], 41.5%; in test [5], 24.5%.
As for `C[C@@H]1O[C@@H](OC[C@H]2O[C@H](Oc3c(-c4ccc(O)c(O)c4)oc4cc(O)cc(O)c4c3=O)[C@H](O)[C@H](O)[C@H]2O)[C@H](O)[C@H](O)[C@H]1O`, the Activity was 38.7% in test [1], 56% in test [3], 56.4% in test [4] and 51.6% in test [5]. Further, the Cytotoxicity entry in test [2] was “Not detected”.
Regarding `C=C[C@H]1CN2CC[C@H]1C[C@H]2[C@H](O)c1ccnc2ccc(OC)cc12` [QUININE], in test [6], the Inhibitory ratio is 45.3.
Regarding `O=c1c(O[C@@H]2O[C@H](CO[C@@H]3OC[C@@H](O)[C@H](O)[C@H]3O)[C@H](O)[C@H](O)[C@H]2O)c(-c2ccc(O)cc2)oc2cc(O)cc(O)c12`, in test [7], the Cytotoxicity entry is “Not detected”. In addition, the Activity in test [1] was found to be 22.4%; in test [3], 61.9%; in test [4] it was 56.2%; in test [5], 43.1%.
Regarding `O=c1c(O[C@@H]2O[C@H](CO)[C@H](O)[C@@H](O)[C@H]2O)c(-c2ccc(O)c(O)c2)oc2cc(O)cc(O)c12`, the Activity in test [1] is 31.1%; in test [3] it was 31.7%; in test [4] it was 36.8%; in test [5], 27.7%.
